Like-named read-outs stand apart in the source and are kept apart here.
Legend:
[1] = tested on: 3T3-L1 adipocytes; assay: Triglyceride levels (delipidation) in 3T3-L1 adipocytes; assay type: cell-based, Mouse; conditions: for TG levels: differentiated 3T3-L1 adipocytes, alone or combined with t10c12 CLA; for reduced triglyceride levels by, relative to the linoleic acid control: Example 15, CLA 50 uM
Procedure: Two well known AMPK activators with very different chemical structures are metformin and AICAR. Metformin is from the class of biguanides while AICAR is a ribonucleoside analog that is phosphorylated in the cell to form ZMP, an AMP mimetic. […] A lower 50 μM level of t10c12 CLA was used in the experiment to better measure any effects of the combinations.
We recognize the complex medical effects and dangers of ATRA, retinoids, or rexinoids, has limited their therapeutic use in humans.
We tested the role of PPARβ/δ with the use of GW0742, a PPARβ/δ agonist.
Activating ligands include hydroxysterols such as 24(S)-Hydroxycholesterol or 24(S),25-epoxycholesterol.
We treated 3T3-L1 adipocytes with control or CLA fatty acids, with or without a statin drug.

[2] = tested on: MCP-1 mRNA; assay: MCP-1 mRNA by real time PCR in 3T3-L1 adipocytes; assay type: cell-based, Mouse; conditions: 12 hrs
Procedure: CLA has been reported to cause inflammation which is considered a non-healthy condition. […] Metformin or AICAR was used in combination with t10c12 CLA in the media containing the adipocytes for 12 hrs. RNA was isolated and the inflammatory response, as measured by MCP-1 (an inflammatory cytokine) mRNA levels, was determined by real time PCR of the reverse transcribed RNA.

[3] = tested on: AMPK; assay: AMPK phosphorylation in 3T3-L1 adipocytes, western blot; assay type: cell-based, Mouse; conditions: for Phospho-AMPK Amount: 3T3-L1 adipocytes, LA = 1
Procedure: (§3) The level of phosphorylated AMPK and acetyl CoA carboxylase (ACC), one of AMPK's known in vivo substrates, was measured at various times after treating 3T3-L1 adipocytes with either 100 uM linoleic acid or trans-10, cis-12 CLA (t10c12 CLA). […] The total amounts of AMPK and ACC were also determined with antibodies that recognize the respective proteins regardless of phosphorylation status.
(§4) The phosphorylation levels of AMPK and ACC were then determined after treating 3T3-L1 adipocytes with either metformin, AICAR, or t10c12 CLA alone or in combination.

[4] = 14 d feeding trial of t10c12 CLA and metformin in ML mice; assay type: in vivo; conditions: for fat pad weights relative to control untreated mice: 0.25% CLA, either dose of metformin; for change in body weight (BW) / final weight of the epididymal (EPI) / final weight of the retroperitoneal (RP): mean ± SEM
Procedure: (§1) FIG. 1. […] Forty-two MC and 42 mL mice were fed diets containing soy oil or soy oil with 0.25% t10c12 CLA and drinking water containing either none, 0.33 mg/ml, or 3.33 mg/ml metformin (Met) for 14 days (n=6 mice per treatment). A positive control diet contained the standard amount of 0.5% t10c12 CLA without any metformin. Body weights were recorded and retroperitoneal (RP) and epididymal fat pads from all the mice were isolated and weighed.

[5] = 14 d feeding trial of t10c12 CLA and metformin in MC mice; assay type: in vivo; conditions: mean ± SEM
Procedure: as §1

[6] = tested on: WAT of mice; assay: Microarray analysis of WAT of mice fed t10c12 CLA; assay type: in vivo
Description: Recent microarray analyses of the WAT of mice fed t10c12 CLA by our laboratory and others found three major trends. […] This initial inflammatory response is transient: the expression levels of many of these genes returns to normal levels following the first week of treatment, and the remaining genes are expressed at lower levels than the initial response. […] In particular, carnitine palmitoyltransferase I (CPT1), uncoupling protein 1 (UCP1), and uncoupling protein 2 (UCP2) show increases. The response in UCP1 and UCP2 genes is quite strong, as the levels of the induced mRNAs are in the 95th and 90th percentiles of the most abundant mRNAs in the adipocyte, respectively. UCP1 is usually exclusively expressed in brown adipose tissue, so this is a remarkable change in expression pattern with likely physiological effects. There is not a consensus that increased metabolic heat output occurs in t10c12 CLA treatments, but this increased metabolism has been observed in some studies.

[7] = tested on: 3T3-L1 fibroblasts; assay: Integrated stress response (ISR) in 3T3-L1 fibroblasts, microarray; assay type: cell-based, Mouse; conditions: 3T3-L1 fibroblasts prior to differentiation
Description: (§2) We have microarray analyses of 3T3-L1 fibroblasts prior to differentiation and from liver tissues in mice treated with t10c12 CLA that support the hypothesis that t10c12 CLA is selective in the types of cells responding. The ISR is a cell response that most cells are capable of inducing and is a key part of the response to t10c12 CLA [5, 19].

[8] = tested on: liver tissues; assay: Microarray analysis of liver tissues of mice treated with t10c12 CLA; assay type: in vivo
Description: as §2

[9] = tested on: acetyl CoA carboxylase (ACC); conditions: for Phospho-ACC amount: 3T3-L1 adipocytes, LA = 1
Procedure: as §3, §4

[10] = tested on: 3T3-L1 adipocytes; assay: Microarray gene expression changes in 3T3-L1 adipocytes; assay type: cell-based, Mouse; conditions: compared with t10c12 CLA, data not shown
[11] = tested on: adipocytes; assay: Inflammatory response to phenformin in adipocytes; assay type: cell-based; conditions: compared with metformin
[12] = reference [18]; cited from earlier work
[13] = 100 uM, from 30 min, persisted 16 hr, vs linoleic acid

C[C@H](CC[C@@H]1OC1(C)C)[C@H]1CC[C@H]2[C@@H]3CC=C4C[C@@H](O)CC[C@]4(C)[C@H]3CC[C@]12C [24(S),25-epoxycholesterol]
TG levels [1]: did not reduce TG levels

CC(C)[C@@H](O)CC[C@@H](C)[C@H]1CC[C@H]2[C@@H]3CC=C4C[C@@H](O)CC[C@]4(C)[C@H]3CC[C@]12C [24(S)-Hydroxycholesterol]
TG levels [1]: did not reduce TG levels

NC(=O)c1ncn([C@@H]2O[C@H](CO)[C@@H](O)[C@H]2O)c1N [AICAR, aminoimidazole carboxamide ribonucleotide, reference compound]
MCP-1 induction relative to the LA control [2]: neither metformin nor AICAR alone produced a significant induction

CC1=C(/C=C/C(C)=C/C=C/C(C)=C/C(=O)O)C(C)(C)CCC1 [ATRA, All trans retinoic acid]
TG levels [1]: increased amounts of TG

CCCCC/C=C\C=C\CCCCCCCCC(=O)O [CLA, trans-10, cis-12 CLA]
total amount of AMPK ([3]; 100 uM, 16 hr experiment): remained constant
level of phosphorylated AMPK [3, 13]: increased levels
Phospho-AMPK Amount ([3]; 2 hr): 6.0
Phospho-AMPK Amount ([3]; 8 hr): 1.7
reduction in triglyceride levels ([1]; Example 2, CLA alone, vs LA control): 50%
reduced triglyceride levels by, relative to the linoleic acid control [1]: 25%
MCP-1 induction relative to the LA control [2]: 23 fold
MCP-1 mRNA levels ([2]; LA = 1): 23
fat pad weights relative to control untreated mice [4]: no significant change
change in body weight (BW) ([4]; Met0 (no metformin), 14 d): 1.89 ± 0.95 g
final weight of the epididymal (EPI) ([4]; Met0, 14 d): 0.89 ± 0.17 g
final weight of the retroperitoneal (RP) ([4]; Met0, 14 d): 0.27 ± 0.08 g
change in body weight (BW) ([5]; Met0, 14 d): 1.42 ± 0.46 g
final weight of the epididymal (EPI) ([5]; Met0, 14 d): 0.31 ± 0.07 g
final weight of the retroperitoneal (RP) ([5]; Met0, 14 d): 0.1 ± 0.01 g
UCP1 induced mRNA level, percentile of the most abundant mRNAs in the adipocyte ([6]; WAT of mice fed t10c12 CLA): 95 percentile
UCP2 induced mRNA level, percentile of the most abundant mRNAs in the adipocyte ([6]; WAT of mice fed t10c12 CLA): 90 percentile
expression of key adipocyte lipid-related genes ([6]; WAT of mice fed t10c12 CLA): reduced expression
mRNA levels of key fatty acid oxidation genes (CPT1, UCP1, UCP2) ([6]; WAT of mice fed t10c12 CLA): increased mRNA levels
inflammatory response (Cox2, cytokines) ([6]; first several days of dietary t10c12 CLA, transient): induce an inflammatory response
ISR response [7]: do not show this response
ISR in liver ([8]; compared with adipose tissue): weak ISR
delipidation or inflammatory response in liver ([8]; mice treated with t10c12 CLA): lacked a significant delipidation or inflammatory response
total amount of ACC ([9]; 100 uM, 16 hr experiment): remained constant
level of phosphorylated ACC [9, 13]: increased levels
Phospho-ACC amount ([9]; 2 hr): 4.1
Phospho-ACC amount ([9]; 8 hr): 3.3

Cc1cc(SCc2sc(-c3ccc(C(F)(F)F)c(F)c3)nc2C)ccc1OCC(=O)O [GW0742]
TG levels [1]: little effect on TG levels

CN(C)C(=N)N=C(N)N [Metformin]
MCP-1 induction relative to the LA control [2]: neither metformin nor AICAR alone produced a significant induction
induction of inflammatory genes (CD14, Clcf1, Cox2, Csf1, MCP-1, Osmr, PAI, SOCS3) [10]: lower levels of induction
fat pad weights relative to control untreated mice [4]: increased fat pad weights
final weight of the epididymal (EPI) ([4]; Met2 (2 mmol/L), 14 d): 1.06 ± 0.13 g
final weight of the retroperitoneal (RP) ([4]; Met2 (2 mmol/L), 14 d): 0.37 ± 0.1 g
change in body weight (BW) ([4]; Met2 (metformin 2 mmol/L drinking water), 14 d): 2.89 ± 1 g
final weight of the epididymal (EPI) ([4]; Met20 (20 mmol/L), 14 d): 1.08 ± 0.12 g
final weight of the retroperitoneal (RP) ([4]; Met20 (20 mmol/L), 14 d): 0.33 ± 0.06 g
change in body weight (BW) ([4]; Met20 (metformin 20 mmol/L drinking water), 14 d): 2.54 ± 0.51 g
change in body weight (BW) ([5]; Met2 (2 mmol/L), 14 d): 1.96 ± 0.9 g
final weight of the epididymal (EPI) ([5]; Met2 (2 mmol/L), 14 d): 0.59 ± 0.07 g
final weight of the retroperitoneal (RP) ([5]; Met2 (2 mmol/L), 14 d): 0.23 ± 0.04 g
change in body weight (BW) ([5]; Met20 (20 mmol/L), 14 d): 2.82 ± 0.96 g
final weight of the epididymal (EPI) ([5]; Met20 (20 mmol/L), 14 d): 0.48 ± 0.09 g
final weight of the retroperitoneal (RP) ([5]; Met20 (20 mmol/L), 14 d): 0.23 ± 0.06 g

[H]/N=C(/N)N/C(=N/[H])NCCc1ccccc1 [Phenformin]
p-AMPK levels ([3]; compared with metformin): higher p-AMPK levels
delipidation ([1]; Example 9): sufficient for the type of strong delipidation observed with t10c12 CLA treatments
inflammatory response [11]: stronger than that observed with metformin
lactic acidosis [12]: can cause toxic lactic acidosis

c1cc(-c2cnn3cc(-c4ccc(OCCN5CCCCC5)cc4)cnc23)ccn1 [compound C, reference compound]
phosphorylation of AMPK ([3]; Example 2, western blot): inhibited
phosphorylation of Acetyl-Coenzyme A Carboxylase (ACC) ([9]; Example 2, western blot): inhibited

CC[C@H](C)C(=O)O[C@H]1CCC=C2C=C[C@H](C)[C@H](CC[C@@H]3C[C@@H](O)CC(=O)O3)[C@H]21 [mevastatin, Mevastatin]
reduced triglyceride levels by, relative to the linoleic acid control [1]: 10%

CC1=C(/C=C/C(C)=C/C=C/C(C)=C/CO)C(C)(C)CCC1 [vitamin A, retinol]
TG levels [1]: little impact
